A value given as a limit tells only on which side of the number the result lay.

Sequence of human M4 receptor (P08173 whole entry): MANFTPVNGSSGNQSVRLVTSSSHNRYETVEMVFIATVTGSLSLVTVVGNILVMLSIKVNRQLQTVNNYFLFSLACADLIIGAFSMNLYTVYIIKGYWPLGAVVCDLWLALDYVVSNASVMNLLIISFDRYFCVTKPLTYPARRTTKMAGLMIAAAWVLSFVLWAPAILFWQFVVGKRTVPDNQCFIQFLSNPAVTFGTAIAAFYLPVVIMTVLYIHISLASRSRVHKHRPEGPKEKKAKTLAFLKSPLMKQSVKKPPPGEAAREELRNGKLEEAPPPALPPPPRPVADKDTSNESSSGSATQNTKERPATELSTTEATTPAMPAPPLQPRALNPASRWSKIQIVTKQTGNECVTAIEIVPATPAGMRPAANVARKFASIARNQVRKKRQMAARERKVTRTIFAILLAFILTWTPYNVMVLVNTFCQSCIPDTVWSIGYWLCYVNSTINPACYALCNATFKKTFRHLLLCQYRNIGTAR

The experiment concerns the target human M4 receptor (Homo sapiens (Human), UniProt P08173). As to the kind of experiment: Binding assay: inhibition of radioligand (tritiated N-methylscopolamine) binding to membranes from CHO cells expressing human M4 receptor. The conditions noted are these: CHO cell membranes, 1.5 nM tritiated N-methylscopolamine. On the procedure:
Binding affinity (Ki) for the compounds was measured by inhibition of radioligand binding to membranes from CHO cells expressing human M4 receptor. Membranes were prepared by nitrogen cavitation and differential centrifugation as previously described (Hoare et al., Mol. Pharmacol. 2003 March; 63(3): 751-65). The radioligand employed was tritiated N-methylscopolamine, used at a concentration of 1.5 nM. A dose-response of twelve concentrations of compound was used, ranging from […]. The assay buffer was 50 mM HEPES, 100 mM NaCl, 5 mM MgCl2, 1 mM ethylenediaminetetraacetic acid, pH-adjusted to pH 7.4. Membranes, radioligand and compound were incubated together for 90 minutes at 37° C., in a total volume of 150 μL in a 96-well plate. Receptor-bound radioligand was then collected by harvesting the assay over glass fiber filters pretreated with polyethylenimine to trap the cell membranes, using rapid vacuum filtration. Harvesting and radioactivity counting was conducted as previously described (see, e.g., Hoare et al., Mol. Pharmacol. 2003 63(3):751-65); Erratum at Mol. Pharmacol. 2005 July; 68(1): 260).
A word on the Ki: it is the equilibrium dissociation constant of an inhibitor or competing ligand from its target. Higher therefore signals a looser hold on the target. `C[C@@H]1CN(c2ncc3c(n2)CS(=O)(=O)C3)C[C@H](C)N1C(=O)OC1CC2(C1)CN(Cc1ccccc1)C2` [Compound 43, 2-benzyl-2-azaspiro [3.3]heptan-6-yl (2R,6S)-4-dioxo-5H,7H-6λ^6-thieno [3,4-d]pyrimidin-2-yl}-2,6-dimethylpiperazine-1-carboxylate] had a Ki of under 100 nM. Turning to `COc1cnc(N2C[C@@H](C)N(C(=O)OC3CC4(C3)CN(Cc3ccccc3)C4)[C@@H](C)C2)nc1` [Compound 45, 2-benzyl-2-azaspiro [3.3]heptan-2-yl (2R,6S)-4-(5-methoxypyrimidin-2-yl)-2,6-dimethyl-piperazine-1-carboxylate], the Ki is at least 500 nM.

The molecule `C[C@@H]1CN(c2ncc(OC3CC3)cn2)C[C@H](C)N1C(=O)OC1CC2(C1)CN(Cc1ccccc1)C2` [Compound 46, 2-benzyl-2-azaspiro [3.3]heptan-6-yl (2R,6S)-4-(5-cyclopropoxy-pyrimidin-2-yl)-2,6-dimethylpiperazine-1-carboxylate] gave a Ki of at least 500 nM. Regarding `CC(C)S(=O)(=O)c1cnc(N2C[C@@H](C)N(C(=O)OC3CC4(C3)CN(Cc3ccccc3)C4)C[C@@H]2C)nc1` [Compound 26, 2-benzyl-2-azaspiro [3.3]heptan-6-yl (2R,5S)-2,5-dimethyl-4-[5-(propane-2-sulfonyl)pyrimidin-2-yl]piperazine-1-carboxylate], the inhibitory constant (Ki) is under 100 nM. In turn, `C[C@@H]1CN(c2ncc(S(=O)(=O)C3CC3)cn2)CCN1C(=O)NC1CC2(C1)CN(Cc1ccccc1)C2` [Compound 8, (2R)-N-{2-benzyl-2-azaspiro[3.3]heptan-6-yl}-4-[5-(cyclopropanesulfonyl)pyrimidin-2-yl]-2-methylpiperazine-1-carboxamide] gave a Ki of 100 to 500 nM.

With `C[C@@H]1CN(c2ncc(OCC(O)C(F)F)cn2)C[C@H](C)N1C(=O)OC1CC2(C1)CN(Cc1ccccc1)C2` (stereo partly drawn) [Compound 54, 2-benzyl-2-azaspiro [3.3]heptan-6-yl (2R,6S)-4-[5-(3,3-difluoro-2-hydroxypropoxy)pyrimidin-2-yl]-2,6-dimethylpiperazine-1-carboxylate], the Ki is 100 to 500 nM.

`C[C@H](O)COc1cnc(N2C[C@@H](C)N(C(=O)OC3CC4(C3)CN(Cc3ccccc3)C4)[C@@H](C)C2)nc1` [Compound 55, 2-benzyl-2-azaspiro [3.3]heptan-6-yl (2R,6S)-4-{5-[(2S)-2-hydroxypropoxy]pyrimidin-2-yl}-2,6-dimethylpiperazine-1-carboxylate]: the Ki is at least 500 nM. The same measure for `C[C@@H]1CN(c2ncc(S(C)(=O)=O)cn2)C[C@H](C)N1C(=O)OC1CC2(C1)CN(Cc1ccccc1)C2` [Compound 33, 2-benzyl-2-azaspiro [3.3]heptan-6-yl (2R,6S)-4-(5-methane-sulfonylpyrimidin-2-yl)-2,6-dimethylpiperazine-1-carboxylate]: under 100 nM; for `C[C@@H]1CN(c2ncc(S(C)(=O)=O)cn2)C[C@H](C)N1C(=O)OC1CC2(C1)CN(Cc1ccc(F)cc1)C2` [Compound 38, 2-[(4-fluorophenyl)methyl]-2-azaspiro[3.3] heptan-6-yl (2R,6S)-4-(5-methanesulfonylpyrimidin-2-yl)-2,6-dimethyl-piperazine-1-carboxylate]: under 100 nM; for `COc1ccccc1CN1CC2(CC(OC(=O)N3[C@H](C)CN(c4ncc(S(C)(=O)=O)cn4)C[C@@H]3C)C2)C1` [Compound 62, 2-[(2-methoxyphenyl)methyl]-2-azaspiro[3.3] heptan-6-yl (2R,6S)-4-(5-methanesulfonylpyrimidin-2-yl)-2,6-dimethyl-piperazine-1-carboxylate]: at least 500 nM.

Molecule `CCS(=O)(=O)c1cnc(N2CCN(C(=O)NC3CC4(C3)CN(Cc3ccccc3)C4)[C@H](C)C2)nc1` [Compound 7, (2R)-N-{2-benzyl-2-azaspiro[3.3]heptan-6-yl}-4-[5-(ethanesulfonyl)pyrimidin-2-yl]-2-methylpiperazine-1-carboxamide] came in with a Ki of 100 to 500 nM. `C[C@@H]1CN(c2ncc(S(=O)(=O)C3CC3)cn2)CCN1C(=O)OC1CC2(C1)CN(Cc1ccccc1)C2` [Compound 22, 2-benzyl-2-azaspiro [3.3]heptan-6-yl (2R)-4-[5-(cyclopropanesulfonyl)pyrimidin-2-yl]-2-methylpiperazine-1-carboxylate] gave a Ki of under 100 nM. Molecule `CCS(=O)(=O)c1cnc(N2C[C@@H](C)N(C(=O)OC3CC4(C3)CN(Cc3ccccc3)C4)[C@H](C)C2)nc1` [Compound 18, 2-benzyl-2-azaspiro [3.3]heptan-6-yl (2R,6R)-4-[5-(ethane-sulfonyl)pyrimidin-2-yl]-2,6-dimethylpiperazine-1-carboxylate] returned a Ki of 100 to 500 nM. Consider `Cc1nc(N2C[C@@H](C)N(C(=O)OC3CC4(C3)CN(Cc3ccccc3)C4)C[C@@H]2C)ncc1S(C)(=O)=O` [Compound 25, 2-benzyl-2-azaspiro [3.3]heptan-6-yl (2R,5S)-4-(5-methane-sulfonyl-4-methyl-pyrimidin-2-yl)-2,5-dimethylpiperazine-1-carboxylate], for which the Ki is under 100 nM. Turning to `C[C@@H]1CN(c2ncc(S(C)(=O)=O)cn2)[C@@H](C)CN1C(=O)OC1CC2(C1)CN(Cc1ccccc1)C2` [Compound 12, 2-benzyl-2-azaspiro [3.3]heptan-6-yl (2R,5S)-4-(5-methane-sulfonylpyrimidin-2-yl)-2,5-dimethylpiperazine-1-carboxylate], the Ki was under 100 nM. `C[C@@H]1CN(c2ncc(S(C)(=O)=O)cn2)CCN1C(=O)OC1CC2(C1)CN(Cc1ccccc1)C2` [Compound 13, 2-benzyl-2-azaspiro [3.3]heptan-6-yl (2R)-4-(5-methanesulfonyl-pyrimidin-2-yl)-2-methylpiperazine-1-carboxylate] displayed an inhibition constant Ki of 100 to 500 nM.
